In assay [1] the test system is Staph. epidermidis 5747IIW.
Assay [2] deals with Staphylococcus aureus 701E.
The test system of assay [3] is Streptococcus pyogenes 308A.
Assay [4] relates to Staphylococcus aureus FH 1982.
Assay [5] relates to Staphylococcus aureus 503.
Assay [6] relates to Staphylococcus aureus SG 511.
Another assay deals with T1, SERCA2 (Canis lupus familiaris, UniProt O46674).
T1 construct: activity of the Ca^2+ ATPase in dog heart microsomes; from tissue; host or cells: dog heart microsomes
As to the kind of experiment: Colorimetric Ca2+ ATPase (SERCA2) activation test in dog heart microsomes. It is filed as biochemical. Particulars: Ca2+ ATPase activity in dog heart microsomes, phosphate release at 620 nm. The text has this:
For the detection of the activators of SERCA2 which imitate the phosphorylation effect of PLB, a […] test may be run which determines the activity of the Ca^2+ ATPase in dog heart microsomes in the presence of test substances. The test may be carried out in 96-well microtiter plates. The enzymatic release of inorganic phosphate from ATP, which forms a blue colored complex with ammonium molybdate which can be measured at 620 nm in a spectrophotometer, may be measured.

In assay [7] the target is glucose-6-phosphate translocase (G-6-P—TL) (Homo sapiens, UniProt O43826). As to the kind of experiment: Inhibition of glucose-6-phosphate translocase. The assay is classed as biochemical.
In assay [8] the test system is Enterococcus faecium Md8B.
The subject of assay [9] is Staphylococcus aureus 285.
The test system of assay [10] is Staphylococcus aureus 9 Tüb.
For assay [11], the system named is Streptococcus pyogenes 77A.
Assay [12] relates to Streptococcus pyogenes VR3. As to the kind of experiment: Minimum inhibitory concentration. It is filed as cell-based. Particulars: resistance against: Vancomycin.
Another assay concerns the target G-6-P phosphatase (Homo sapiens, UniProt P35575). The assay is described as follows: Inhibition of G-6-P phosphatase. The assay is classed as biochemical.
Assay [13] concerns Staphylococcus aureus 707E.

We go through one molecule from US6627604B2, “Memno peptides, process for their preparation and use thereof” (priority 2000, dated 2003).

≈ marks a conversion by molar mass, not a printed value. Residues, ends and D or L forms follow the SMILES beside them. *: point of attachment. X1 = CC1CCC2C(C)(C)C(O)CCC2(C)C12Cc1c(O)cc3c(c1O2)CN(C(CC[S+](C)[O-])C(=O)*)C3=O Some results are limits rather than exact numbers.

glucose-6-phosphate translocase (G-6-P—TL), sequence (O43826 whole entry, species assumed): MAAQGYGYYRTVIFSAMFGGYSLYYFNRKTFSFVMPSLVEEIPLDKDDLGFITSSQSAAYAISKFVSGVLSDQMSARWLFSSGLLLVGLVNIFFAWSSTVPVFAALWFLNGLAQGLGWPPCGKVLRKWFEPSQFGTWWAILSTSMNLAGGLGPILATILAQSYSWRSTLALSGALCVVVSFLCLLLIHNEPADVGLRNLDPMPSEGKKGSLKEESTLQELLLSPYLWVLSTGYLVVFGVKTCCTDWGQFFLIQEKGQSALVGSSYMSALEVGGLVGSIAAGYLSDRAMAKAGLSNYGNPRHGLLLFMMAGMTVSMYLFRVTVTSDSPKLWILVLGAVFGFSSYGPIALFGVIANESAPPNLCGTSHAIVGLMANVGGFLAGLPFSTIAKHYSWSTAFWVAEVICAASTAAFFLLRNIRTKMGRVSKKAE
T1 sequence (O46674 whole entry): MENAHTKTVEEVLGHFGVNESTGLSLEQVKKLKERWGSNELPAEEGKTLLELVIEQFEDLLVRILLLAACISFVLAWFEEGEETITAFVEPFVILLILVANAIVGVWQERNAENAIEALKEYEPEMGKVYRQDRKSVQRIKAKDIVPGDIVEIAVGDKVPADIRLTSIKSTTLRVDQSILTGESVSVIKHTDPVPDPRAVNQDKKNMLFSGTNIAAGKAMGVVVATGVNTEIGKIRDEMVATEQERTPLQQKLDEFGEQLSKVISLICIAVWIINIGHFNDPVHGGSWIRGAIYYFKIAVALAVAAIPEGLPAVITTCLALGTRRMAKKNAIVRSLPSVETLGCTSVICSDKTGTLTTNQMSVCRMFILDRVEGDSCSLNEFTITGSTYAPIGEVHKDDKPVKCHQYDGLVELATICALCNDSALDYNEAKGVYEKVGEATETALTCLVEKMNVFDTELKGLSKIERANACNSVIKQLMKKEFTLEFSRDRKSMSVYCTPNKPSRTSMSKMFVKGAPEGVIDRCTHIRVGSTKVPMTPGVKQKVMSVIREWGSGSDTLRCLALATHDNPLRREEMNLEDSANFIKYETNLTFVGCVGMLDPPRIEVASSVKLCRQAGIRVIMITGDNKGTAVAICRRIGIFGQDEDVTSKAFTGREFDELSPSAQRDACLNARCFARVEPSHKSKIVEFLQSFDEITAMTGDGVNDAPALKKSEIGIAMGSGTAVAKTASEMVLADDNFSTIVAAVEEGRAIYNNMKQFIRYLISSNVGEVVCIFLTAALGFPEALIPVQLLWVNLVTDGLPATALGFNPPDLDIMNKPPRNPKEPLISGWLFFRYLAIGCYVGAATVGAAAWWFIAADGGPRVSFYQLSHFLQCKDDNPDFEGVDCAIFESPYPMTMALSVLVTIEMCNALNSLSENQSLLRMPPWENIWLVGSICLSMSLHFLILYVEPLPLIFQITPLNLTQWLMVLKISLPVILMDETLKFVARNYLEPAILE
G-6-P phosphatase, sequence (P35575 whole entry): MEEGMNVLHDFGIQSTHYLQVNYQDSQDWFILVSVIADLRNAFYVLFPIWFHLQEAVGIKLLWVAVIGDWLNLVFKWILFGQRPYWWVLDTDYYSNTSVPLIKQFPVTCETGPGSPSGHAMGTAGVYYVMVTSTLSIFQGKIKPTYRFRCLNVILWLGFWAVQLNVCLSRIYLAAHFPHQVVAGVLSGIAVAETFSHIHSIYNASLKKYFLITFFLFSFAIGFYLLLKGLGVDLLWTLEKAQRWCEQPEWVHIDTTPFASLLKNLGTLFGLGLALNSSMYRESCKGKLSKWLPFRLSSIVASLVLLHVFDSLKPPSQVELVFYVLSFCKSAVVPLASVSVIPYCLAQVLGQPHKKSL

The term MIC denotes the lowest concentration found to suppress growth. The low end stands for greater potency, the high end for weaker potency. For `CC(C)CC(NC(=O)C1CCCN1C(=O)C(CCC(N)=O)NC(=O)C(Cc1c[nH]cn1)NC(=O)C1CCCN1C(=O)C(CCC(N)=O)NC(=O)C(Cc1cnc[nH]1)NC(=O)C(CC[S+](C)[O-])N1Cc2c(cc(O)c3c2OC2(C3)C(C)CCC3C(C)(C)C(O)CCC32C)C1=O)C(=O)N1CCCC1C(=O)N1CCCC1C(=O)O` (stereo not drawn) [memno peptide A] (X1-HQPHQPLPP-OH; configuration not given here), the MIC in [1] worked out at 32 µg/mL (≈ 20.4 µM); in [2], 16 µg/mL (≈ 10.2 µM); in assay [3], 8 µg/mL (≈ 5.11 µM); in assay [4], 16 µg/mL (≈ 10.2 µM); against Staph. epidermidis 799, 8 µg/mL (≈ 5.11 µM); in [5], 16 µg/mL (≈ 10.2 µM). The MIC in assay [6] was 16 µg/mL (≈ 10.2 µM); in the assay on Enterococcus faecium VR2 it was over 64 µg/mL; with Enterococcus faecium VR1, over 64 µg/mL; in assay [8], 8 µg/mL (≈ 5.11 µM); in assay [9] it was 16 µg/mL (≈ 10.2 µM); in assay [10] it was 16 µg/mL (≈ 10.2 µM). The MIC was 4 µg/mL (≈ 2.55 µM) in [11]; over 16 µg/mL with Staph. epidermidis 763; over 64 µg/mL in [12]; 16 µg/mL (≈ 10.2 µM) in the assay with Staph. epidermidis ZH 2c; 8 µg/mL (≈ 5.11 µM) against Staph. epidermidis 291; 16 µg/mL (≈ 10.2 µM) in assay [13]. Further, on SERCA2, the “activates SERCA2 in concentrations from” value is at least 12.5 µM. In addition, the “inhibitory action on glucose-6-phosphate translocase (G-6-P—TL)” value in [7] is listed as “exhibits selective activities against G-6-P—TL”. For the same molecule, on G-6-P phosphatase, the “inhibition of the coenzyme G-6-P phosphatase” value is listed as “does not inhibit”.
